Assays:
[1] = test system: MEF cells expressing human RTN4-GFP; assay: Apoptosis (propidium iodine and Annexin-V, flow cytometry) in MEF cells expressing human RTN4-GFP; format: cell-based, mouse; details: DKM 3-30 50 μM, 0, 8 or 16 h
Procedure: FIG. 12. Effect of DKM 3-30 in Mouse Embryonic Fibroblast (MEF) cells expressing human RTN4. C1101 in human RTN4 is instead a serine in mouse RTN4. […] GFP or RTN4-GFP expressing MEF cells were treated with DKM 3-30 (50 μM) for 0, 8, or 16 h and apoptotic cells (propidium iodine positive and Annexin-V positive) were assessed by flow cytometry. Data are presented as mean±sem. Significance is expressed as *p<0.05 compared to 0 h time-point.

[2] = test system: SW620 colorectal cancer cells; assay: Serum-free cell survival of SW620 cells (Hoescht staining); format: cell-based; details: 48 h, vs DMSO, average of n = 3/group
Procedure: Cell Culture. SW620 cells were purchased from ATCC. SW620 cells were grown in L-15 media with 10% fetal bovine serum (FBS) in ambient CO2. U2OS cells were grown in DMEM media supplemented with 10% FBS at 37° C. with 5% CO2.
Survival and Proliferation Assays. Cells were plated the evening before the experiment, and allowed to adhere overnight. For serum-free cell survival assays, cells were plated in media not containing FBS. For cell proliferation assays, cells were plated in regular media. For the chemical genetics screen, cells were treated with either DMSO or the cysteine-reactive fragment for 48 h and cell viability was assessed by Hoescht stain using our previously described methods

[3] = Body weight and overt toxicity of mice in the tumor xenograft study; format: in vivo; details: 50 mg/kg ip once per day, weighed at the end of the study
Procedure: Mice from tumor xenograft studies shown in FIG. 1E were weighed at the end of the study. […] Data are presented as mean±sem, n=8 mice/group.
Tumor Xenograft Growth Studies. C.B17 SCID male mice (6-8 weeks old) were injected subcutaneously into the flank with 2,000,000 cells in serum-free media. […] Tumors were measured every 7 days by caliper measurements.

[4] = test system: U2OS cells expressing GFP-tagged Sec61β; assay: ER morphology by fluorescence microscopy in U2OS cells expressing GFP-Sec61β; format: cell-based
Procedure: (§1) Fluorescence microscopy. SW620 and U2OS cells were transiently transfected with a plasmid encoding GFP-tagged Sec61β using fuGENE6 (Roche) according to the manufacturer's instructions. Transfected cells plated on poly-L-lysine treated coverslips were treated, washed in PBS, and fixed by incubation in 4% paraformaldehyde in PBS for 10 min. Fixed cells were washed extensively in PBS and nuclei stained by addition of 4′,6-diamidino-2-phenylindole (DAPI) (Thermo Fisher Scientific) for 10 min. Coverslips were mounted using Fluoromount-G (SouthernBiotech) and visualized using a DeltaVision Elite microscope outfitted with a 60× oil immersion objective. Acquired stacks of images of fixed cells were deconvolved and analyzed using SoftWoRx and ImageJ. For time-lapse imaging of live cells, transfected cells were plated on poly-L-lysine treated glass-bottom 4-well imaging chambers (Lab-Tek II; Thermo Fisher Scientific). Imaging was performed using a DeltaVision Elite microscope encased in a chamber that was maintained at 37° C. and was continuously perfused with humidified 5% CO2. Acquired images were analyzed using SoftWoRx and ImageJ.

SW620 tumor xenograft = SW620 tumor xenograft growth in immune-deficient SCID mice; format: in vivo; details: 50 mg/kg ip once per day, started ten days after subcutaneous injection of SW620 cells
Procedure: Tumor Xenograft Growth Studies. C.B17 SCID male mice (6-8 weeks old) were injected subcutaneously into the flank with 2,000,000 cells in serum-free media. For pharmacological treatments, mice were exposed by intraperitoneal (ip) injection with either vehicle (18:1:1 PBS/ethanol/PEG40) or 50 mg/kg DKM 3-30 once per day starting ten days after the initiation of the xenograft experiment and until the completion of the study. Tumors were measured every 7 days by caliper measurements. Animal experiments were conducted in accordance with the guidelines of the Institutional Animal Care and Use Committee of the University of California, Berkeley.

[5] = test system: U2OS cells expressing GFP-tagged Sec61β; assay: Time-lapse imaging of mitosis and nuclear envelope in U2OS cells expressing GFP-Sec61β; format: cell-based; details: DKM 3-30 50 μM
Procedure: FIGS. 4A-4C. DKM 3-30 disrupts nuclear envelope morphology during mitosis. (FIGS. 4A-4C) U2OS cells expressing GFP-tagged Sec61β were treated with vehicle (DMSO) or DKM 3-30 (50 μM) and the ER morphology of mitotic cells visualized by time-lapse fluorescence microscopy. Time (min) is indicated on each panel. Panels (FIGS. 4A, 4B) provide examples of mitotic cells. Enlarged images following mitosis show the nuclear envelope. White arrowheads indicate a GFP-Sec61β structure bisecting the nucleus of a cell incubated with DKM 3-30. […] Bottom panels indicate boxed region.
as §1, with “For time-lapse imaging of live cells, transfected cells were plated on poly-L-lysine treated glass-bottom 4-well imaging chambers (Lab-Tek II; Thermo Fisher Scientific). Imaging was performed using a DeltaVision Elite microscope encased in a chamber that was maintained at 37° C. and was continuously perfused with humidified 5% CO2.” left out

C=CC(=O)Nc1ccc(Oc2ccc(Cl)cc2)cc1 [DKM 3-30, N-(4-(4-chlorophenoxy)phenyl)acrylamide]
apoptosis in MEF cells expressing human RTN4-GFP [1]: induces apoptosis
viability at 50 µM ([2]; Homo sapiens, SW-620, cysteine-reactive fragment 50 μM, read-out: SW620 survival Ave): 31%
SW620 survival Ave ([2]; cysteine-reactive fragment 50 μM): significantly impaired
body weight and signs of overt toxicity [3]: without any changes in body weight or any signs of overt toxicity
ER morphology in U2OS cells ([4]; DKM 3-30 50 μM (8 hr, 16 hr, time-lapse), AMR 1-125 1 μM, YP 1-46 50 μM): striking loss of nearly all peripheral ER tubules and an increase in ER that exhibited sheet-like morphology
time at which alterations in the ER morphology were evident ([4]; DKM 3-30 50 μM, time-lapse imaging): 0.5-1 hr
tumor xenograft growth (SW620 tumor xenograft): initial regression and a sustained impairment in tumor growth
nuclear envelope morphology following mitosis [5]: aberrant nuclei that were bisected by GFP-Sec61β positive structures
duration of mitosis ([5]; control cells ~50-60 min): 3 to 4 h
